Laboratory results from PubChem BioAssay AID248 (DTP/NCI, 2004).
Values joined by “and” are separate entries in the source; they are usually repeats but may differ in a detail not shown here. Identical values can stand only once. Toxic doses and inconclusive results are not listed. Cut-off read from the data, not from the text of the source: active = T/C of 150% or more; inactive = T/C below 125%.

Test system: L1210 leukemia ip in BDF1 mice, survival T/C
Experiment: NCI In Vivo Anticancer Drug Screen. Data for tumor model L1210 Leukemia (intraperitoneal) in B6D2F1 (BDF1) mice
Settings: endpoint: mean survival time, higher = longer survival
Procedure, shortened: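 Transplantable tumor model; survival measured in treated vs vehicle control mice. Value = treated/control.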

[1] = dose: 100.0 mg/kg/injection, schedule: Q01DX001 (ip), vehicle: saline
[2] = dose: 200.0 mg/kg/injection, schedule: Q01DX001 (ip), vehicle: saline
[3] = dose: 400.0 mg/kg/injection, schedule: Q01DX001 (ip), vehicle: saline
[4] = dose: 200.0 mg/kg/injection, schedule: Q04DX003 (ip), vehicle: saline
[5] = dose: 400.0 mg/kg/injection, schedule: Q04DX003 (ip), vehicle: saline
[6] = dose: 100.0 mg/kg/injection, schedule: Q01DX009 (ip), vehicle: saline with Tween-80
[7] = dose: 200.0 mg/kg/injection, schedule: Q01DX009 (ip), vehicle: saline with Tween-80
[8] = dose: 100.0 mg/kg/injection, schedule: Q04DX003 (ip), vehicle: saline
[9] = dose: 100.0 mg/kg/injection, schedule: Q04DX003 (ip), vehicle: Klucel (hydroxypropylcellulose) (HPC)
[10] = dose: 400.0 mg/kg/injection, schedule: Q01DX009 (ip), vehicle: saline with Tween-80

Measured: T/C

CCC1(c2ccccc2)C2C(=O)NC(=O)C1C(=O)NC2=O (stereo not given)
inactive: [1] 98 % of control | [2] 95 % of control | [3] 101 % of control

CC1=NN(c2ccc(S(=O)(=O)O)cc2)C(=O)/C1=C/c1ccc(Cl)cc1
inactive: dose: 100.0 mg/kg/injection, schedule: Q01DX009 (ip), vehicle: saline sonified 105 % of control | dose: 200.0 mg/kg/injection, schedule: Q01DX009 (ip), vehicle: saline sonified 100 % of control | [4] 102 % of control | dose: 400.0 mg/kg/injection, schedule: Q01DX009 (ip), vehicle: saline sonified 104 % of control | [5] 98 % of control

CC(C)c1cc[n+]([O-])cc1
inactive: dose: 50.0 mg/kg/injection, schedule: Q01DX009 (ip), vehicle: saline with Tween-80 94 % of control | [6] 94 % of control | [7] 91 % of control

CC1CN1P(=O)(N1CCCCC1)N1CC1C (stereo not given)
inactive: dose: 11.0 mg/kg/injection, schedule: Q01DX Z (ip), vehicle: carboxymethylcellulose (CMC) 97 % of control | dose: 11.0 mg/kg/injection, schedule: Q01DX Z (ip), vehicle: saline 109 % of control | dose: 13.0 mg/kg/injection, schedule: Q01DX Z (ip), vehicle: carboxymethylcellulose (CMC) 102 % of control | dose: 17.0 mg/kg/injection, schedule: Q01DX Z (ip), vehicle: carboxymethylcellulose (CMC) 119 % of control | dose: 17.0 mg/kg/injection, schedule: Q01DX Z (ip), vehicle: saline 116 % of control | dose: 20.0 mg/kg/injection, schedule: Q01DX Z (ip), vehicle: carboxymethylcellulose (CMC) 102 % of control | dose: 25.0 mg/kg/injection, schedule: Q01DX Z (ip), vehicle: carboxymethylcellulose (CMC) 104 % of control and 116 % of control | dose: 25.0 mg/kg/injection, schedule: Q01DX Z (ip), vehicle: saline 104 % of control | dose: 30.0 mg/kg/injection, schedule: Q01DX Z (ip), vehicle: carboxymethylcellulose (CMC) 105 % of control | dose: 38.0 mg/kg/injection, schedule: Q01DX Z (ip), vehicle: carboxymethylcellulose (CMC) 115 % of control and 116 % of control | dose: 45.0 mg/kg/injection, schedule: Q01DX Z (ip), vehicle: carboxymethylcellulose (CMC) 100 % of control and 115 % of control | dose: 57.0 mg/kg/injection, schedule: Q01DX Z (ip), vehicle: saline 118 % of control | dose: 85.0 mg/kg/injection, schedule: Q01DX Z (ip), vehicle: carboxymethylcellulose (CMC) 109 % of control | dose: 86.0 mg/kg/injection, schedule: Q01DX Z (ip), vehicle: saline 102 % of control and 113 % of control

CCC(O)(/C(=N/Nc1ccc([N+](=O)[O-])cc1[N+](=O)[O-])c1ccccc1)c1ccccc1 (stereo not given)
inactive: dose: 100.0 mg/kg/injection, schedule: Q01DX001 (ip), vehicle: saline with Tween-80 94 % of control | dose: 200.0 mg/kg/injection, schedule: Q01DX001 (ip), vehicle: saline with Tween-80 89 % of control | dose: 400.0 mg/kg/injection, schedule: Q01DX001 (ip), vehicle: saline with Tween-80 89 % of control

Cc1cc(Cl)ccc1NC(=O)c1ccccc1Cl
inactive: dose: 100.0 mg/kg/injection, schedule: Q01DX009 (ip), vehicle: Klucel (hydroxypropylcellulose) (HPC) 101 % of control | [8] 109 % of control | dose: 200.0 mg/kg/injection, schedule: Q01DX009 (ip), vehicle: Klucel (hydroxypropylcellulose) (HPC) 90 % of control | [4] 106 % of control | dose: 400.0 mg/kg/injection, schedule: Q01DX009 (ip), vehicle: Klucel (hydroxypropylcellulose) (HPC) 89 % of control | [5] 106 % of control

Nc1nc(N)c(-c2ccc(Cl)c(Cl)c2)c(CBr)n1
inactive: dose: 1.56 mg/kg/injection, schedule: Q01DX009 (ip), vehicle: saline with Tween-80 101 % of control | dose: 3.13 mg/kg/injection, schedule: Q01DX009 (ip), vehicle: saline with Tween-80 101 % of control and 92 % of control | dose: 6.25 mg/kg/injection, schedule: Q01DX009 (ip), vehicle: saline with Tween-80 102 % of control | dose: 12.5 mg/kg/injection, schedule: Q01DX009 (ip), vehicle: saline with Tween-80 99 % of control and 101 % of control | dose: 12.5 mg/kg/injection, schedule: Q04DX003 (ip), vehicle: Klucel (hydroxypropylcellulose) (HPC) 90 % of control | dose: 25.0 mg/kg/injection, schedule: Q04DX003 (ip), vehicle: Klucel (hydroxypropylcellulose) (HPC) 113 % of control | dose: 50.0 mg/kg/injection, schedule: Q04DX003 (ip), vehicle: Klucel (hydroxypropylcellulose) (HPC) 87 % of control | [9] 87 % of control

CN(C)CC(=O)c1c[nH]c(=O)[nH]c1=O
inactive: [6] 112 % of control | [7] 94 % of control | [10] 102 % of control

N#CC(Cl)(Cl)CCl
inactive: dose: 12.0 mg/kg/injection, schedule: Q04DX003 (ip), vehicle: saline 105 % of control | dose: 25.0 mg/kg/injection, schedule: Q04DX003 (ip), vehicle: saline 96 % of control | dose: 50.0 mg/kg/injection, schedule: Q04DX003 (ip), vehicle: saline 96 % of control | [8] 103 % of control and 105 % of control

Cc1ccc(S(=O)(=O)N2CCC(=O)c3ccc(Cl)cc32)cc1
inactive: [9] 93 % of control | dose: 200.0 mg/kg/injection, schedule: Q04DX003 (ip), vehicle: Klucel (hydroxypropylcellulose) (HPC) 94 % of control | dose: 400.0 mg/kg/injection, schedule: Q04DX003 (ip), vehicle: Klucel (hydroxypropylcellulose) (HPC) 96 % of control

OC1c2ccccc2-c2ccccc21
inactive: [8] 91 % of control | [4] 93 % of control | [5] 93 % of control

Cc1ccc(Nc2ncnc3nc[nH]c23)cc1CN(CCO)CCO
inactive: [1] 101 % of control | [2] 101 % of control | [3] 95 % of control

CC(=O)N1c2cc3ccccc3cc2N(C(C)=O)c2cc3ccccc3cc21
inactive: dose: 100.0 mg/kg/injection, schedule: Q01DX001 (ip), vehicle: acetone 92 % of control | [6] 103 % of control | dose: 200.0 mg/kg/injection, schedule: Q01DX001 (ip), vehicle: acetone 90 % of control | [7] 106 % of control | dose: 400.0 mg/kg/injection, schedule: Q01DX001 (ip), vehicle: acetone 88 % of control | [10] 95 % of control

Oc1ccc2ccccc2c1/C=N/N=c1\[nH][nH]/c(=N\N=C\c2c(O)ccc3ccccc23)c2ccccc12
inactive: dose: 50.0 mg/kg/injection, schedule: Q01DX001 (ip), vehicle: carboxymethylcellulose (CMC) 95 % of control | dose: 100.0 mg/kg/injection, schedule: Q01DX001 (ip), vehicle: carboxymethylcellulose (CMC) 93 % of control | dose: 200.0 mg/kg/injection, schedule: Q01DX001 (ip), vehicle: carboxymethylcellulose (CMC) 98 % of control | dose: 400.0 mg/kg/injection, schedule: Q01DX001 (ip), vehicle: carboxymethylcellulose (CMC) 87 % of control

c1ccc([Si](c2ccccc2)(c2ccccc2)c2ccc3ccccc3c2)cc1
inactive: dose: 25.6 mg/kg/injection, schedule: Q04DX002 (ip), vehicle: saline with Tween-80 87 % of control | dose: 64.0 mg/kg/injection, schedule: Q04DX002 (ip), vehicle: saline with Tween-80 90 % of control | dose: 100.0 mg/kg/injection, schedule: Q04DX003 (ip), vehicle: saline with Tween-80 90 % of control | dose: 160.0 mg/kg/injection, schedule: Q04DX002 (ip), vehicle: saline with Tween-80 90 % of control | dose: 200.0 mg/kg/injection, schedule: Q04DX003 (ip), vehicle: saline with Tween-80 88 % of control | dose: 400.0 mg/kg/injection, schedule: Q04DX002 (ip), vehicle: saline with Tween-80 90 % of control | dose: 400.0 mg/kg/injection, schedule: Q04DX003 (ip), vehicle: saline with Tween-80 87 % of control
